Patent US6710190B1, “3-heteroarylalkyl substituted gaba analogs” (Warner-Lambert Company, priority 1999, dated 2004)
Where two headings read alike, the source gives them in different places.

Experiments:
[1] = biological target: T1, α2δ subunit derived from porcine brain tissue (Sus scrofa, UniProt A0A287BIN3); test: [3H]gabapentin radioligand binding assay (α2δ assay)
T1 construct: the α2δ subunit derived from porcine brain tissue was used; from tissue; host or cells: porcine brain tissue

[2] = tested on: carrageenan-induced thermal hyperalgesia in the rat; test: Pain model: carrageenan-induced thermal hyperalgesia in the rat (plantar test); assay type: in vivo; settings: for Pain Model % MPE 1 h: 1 h after oral administration; for Pain Model % MPE 2h: 2 h after oral administration
Procedure: Male Sprague-Dawley rats (180-250 g) were obtained from Bantin and Kingman, (Hull, U.K.). Animals were housed in groups of 6 to 10 under a 12 hour light/dark cycle (lights on at 7 hours, 0 minutes) with food and water ad libitum.
Thermal hyperalgesia was assessed using the rat plantar test (Ugo Basile, Italy) following a modified method of Hargreaves, et al., 1988. Rats were habituated to the apparatus which consisted of three individual perspex boxes on an elevated glass table. A mobile radiant heat source located under the table was focused onto the desired paw and paw withdrawal latencies (PWL) recorded. PWL were taken 3 times for both hind paws of each animal, the mean of which represented baselines for right and left hind paws. At least 5 minutes were allowed between each PWL for an animal. The apparatus was calibrated to give a PWL of approximately 10 seconds. There was an automatic cutoff point of 20 seconds to prevent tissue damage. After baseline PWLs were determined, animals received an intraplantar injection of carrageenan (100 μL of 20 mg/mL) into the right hind paw. PWLs were reassessed following the same protocol as above 2-hour post-carrageenan (this time point represented the start of peak hyperalgesia) to ascertain that hyperalgesia had developed. Test compounds were administered orally (in a volume of 1 mL/kg) at 2.5 hours after carrageenan. PWLs were reassessed at various times after drug administration.

[3] = tested on: sound-induced tonic seizures in DBA/2 mice; test: DBA2 mouse model: prevention of audiogenic seizures in DBA/2 mice; assay type: in vivo; parameters: concentration or dose not given beside the values; settings: for DBA2 Mouse Model % Protect (1h): 1h after oral dosing; for DBA2 Mouse Model % Protect (2h): 2h after oral dosing
Procedure: All procedures were carried out in compliance with the NIH Guide for the Care and Use of Laboratory Animals under a protocol approved by the Parke-Davis Animal Use Committee. Male DBA/2 mice, 3 to 4 weeks old, were obtained from Jackson Laboratories, Bar Harbour, Me. Immediately before anticonvulsant testing, mice were placed upon a wire mesh, 4 inches square suspended from a steel rod. The square was slowly inverted through 180 degrees and mice observed for 30 seconds. Any mouse falling from the wire mesh was scored as ataxic.
Mice were placed into an enclosed acrylic plastic chamber (21 cm height, approximately 30 cm diameter) with a high-frequency speaker (4 cm diameter) in the center of the top lid. An audio signal generator (Protek model B-180) was used to produce a continuous sinusoidal tone that was swept linearly in frequency between 8 kHz and 16 kHz once each 10 msec. The average sound pressure level (SPL) during stimulation was approximately 100 dB at the floor of the chamber. Mice were placed within the chamber and allowed to acclimatize for 1 minute. DBA/2 mice in the vehicle-treated group responded to the sound stimulus (applied until tonic extension occurred, or for a maximum of 60 seconds) with a characteristic seizure sequence consisting of wild running followed by clonic seizures, and later by tonic extension, and finally by respiratory arrest and death in 80% or more of the mice. In vehicle-treated mice, the entire sequence of seizures to respiratory arrest lasts approximately 15 to 20 seconds.
The incidence of all the seizure phases in the drug-treated and vehicle-treated mice was recorded, and the occurrence of tonic seizures were used for calculating anticonvulsant ED50 values by probit analysis. Mice were used only once for testing at each dose point. […] All drugs in the present study were dissolved in distilled water and given by oral gavage in a volume of 10 mL/kg of body weight. compounds that are insoluble will be suspended in 1% carboxymethocellulose. Doses are expressed as weight of the active drug moiety.

T1 sequence (A0A287BIN3 25-1109): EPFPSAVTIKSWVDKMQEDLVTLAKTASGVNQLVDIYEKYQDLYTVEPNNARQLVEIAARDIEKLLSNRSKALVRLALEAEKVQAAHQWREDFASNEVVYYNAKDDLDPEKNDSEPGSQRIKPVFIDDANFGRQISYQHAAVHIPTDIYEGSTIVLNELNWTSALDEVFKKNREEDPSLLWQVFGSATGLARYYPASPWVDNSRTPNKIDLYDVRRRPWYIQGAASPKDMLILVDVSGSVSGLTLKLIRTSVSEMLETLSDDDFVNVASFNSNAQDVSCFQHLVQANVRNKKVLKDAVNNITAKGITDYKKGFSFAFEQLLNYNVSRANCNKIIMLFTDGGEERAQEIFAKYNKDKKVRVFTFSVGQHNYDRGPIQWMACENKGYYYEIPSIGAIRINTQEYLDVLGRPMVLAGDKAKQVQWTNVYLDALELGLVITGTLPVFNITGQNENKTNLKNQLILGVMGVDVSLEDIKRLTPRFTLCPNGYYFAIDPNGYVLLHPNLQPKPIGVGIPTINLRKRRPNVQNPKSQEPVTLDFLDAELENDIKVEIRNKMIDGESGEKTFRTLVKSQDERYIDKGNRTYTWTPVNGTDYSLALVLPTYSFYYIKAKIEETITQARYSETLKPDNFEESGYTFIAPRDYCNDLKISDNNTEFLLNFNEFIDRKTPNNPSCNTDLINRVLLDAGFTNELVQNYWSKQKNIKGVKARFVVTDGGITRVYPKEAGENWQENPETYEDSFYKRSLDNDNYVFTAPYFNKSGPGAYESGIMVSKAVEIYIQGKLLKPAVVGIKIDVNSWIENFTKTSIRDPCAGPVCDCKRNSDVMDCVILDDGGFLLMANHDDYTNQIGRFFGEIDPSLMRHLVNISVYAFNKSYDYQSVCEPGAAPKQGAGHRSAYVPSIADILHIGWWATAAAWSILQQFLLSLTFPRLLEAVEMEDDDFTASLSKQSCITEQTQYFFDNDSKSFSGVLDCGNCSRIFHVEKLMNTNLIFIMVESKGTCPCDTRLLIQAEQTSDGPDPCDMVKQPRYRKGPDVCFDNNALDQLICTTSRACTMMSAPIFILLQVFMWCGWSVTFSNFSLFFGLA

SMILES: NCC(CC(=O)O)Cc1ccco1 (stereo not shown)
- IC50 [1]: 421 nM
- Pain Model % MPE 1 h [2]: 61.6%
- Pain Model % MPE 2h [2]: 24.9%
- DBA2 Mouse Model % Protect (1h) [3]: 0%
- DBA2 Mouse Model % Protect (2h) [3]: 20%

SMILES: NCC(CC(=O)O)Cc1ccsc1 (stereo not shown)
- IC50 ([1]; read-out: α2δ Assay IC50): 831 nM
- DBA2 Mouse Model % Protect (1h) [3]: 40%
- DBA2 Mouse Model % Protect (2h) [3]: 60%

SMILES: NCC(CC(=O)O)Cc1cccs1 (stereo not shown)
- IC50 ([1]; read-out: α2δ Assay IC50): 2670 nM
- Pain Model % MPE 1 h [2]: 31.9%
- Pain Model % MPE 2h [2]: 18.1%
- DBA2 Mouse Model % Protect (1h) [3]: 20%
- DBA2 Mouse Model % Protect (2h) [3]: 40%
